Consider three molecules from PMC8795745, “A GSH/CB Dual-Controlled Self-Assembled Nanomedicine for High-Efficacy Doxorubicin-Resistant Breast Cancer Therapy” (Frontiers in Pharmacology, 2022).

Molecules are shown by their SMILES. Bridge positions count the residues as written; N and C are the ends. Square brackets hold non-standard residues; d marks the D form. Peptide text beside a SMILES is read from it. * marks the point of attachment. Acetyl(2-naphthyl) = O=C(Cc1ccc2ccccc2c1)*

Series [1] deals with MCF-7 cells. The series is classed as cell-based. The method, then: (§1) MTT assay was performed as described previously.^[6^] Briefly, the cells (5 × 10^3 cells/well) were seeded in 96-well culture plates (Coring) and incubated overnight. Then cells were exposed to various concentrations of cyclic-1a and incubated at 37 °C for 72 h. After that, MTT stock solution (0.5 mg/mL) was added into each well and cultured for additional 4 h. The MTT treated cells were […] with 150 μL of DMSO. The absorbance in each individual well was measured by using a microplate spectrophotometer at […] (SpectraMax M2e, Molecular Devices Inc. USA).

Series [2] deals with MCF-7 cells. Format: cell-based. This is another data set of the same source.
A further series has as its system MCF-7/DOX cells. Kind of series: MTT assay, MCF-7/DOX cells. To be noted: Homo sapiens, MCF7-DOX, mean ± SD, n=3. Format: cell-based. The method, then:
as §1

Series [3] is described as follows: Body weight and histological examination of organs in tumor-bearing mice. Format: in vivo, BALB/c nude mice. Conditions: cyclic-1a 20 and 60 mg/kg. The method, then: Female BALB/c nude mice (6 weeks old) were purchased from the Experimental Animal Center of Yangzhou University. The experiments involving animals were approved by the Animal Ethics Committee of China Pharmaceutical University (Ethic approval number: 2020-07-003). In vivo anticancer activity assay was performed as described previously.^[9^] Briefly, MCF-7/DOX cells (200 μL, 1 × 10^7 cells) were implanted into the right mammary fat pad of nude mice. Once tumors grew to 80-100 mm^3, mice were randomly assigned into four groups and treated intraperitoneally with vehicle, cyclic-1a (20 mg/kg), cyclic-1a (60 mg/kg) or DOX (5 mg/kg) every 3 days for a total of six times. Tumor volume and body weight were measured every 3 days. Tumor volume was calculated using the formula (c × c × d)/2 (c, the smallest diameter; d, the largest diameter).
Immunohistochemical stains against Ki67 and cleaved caspase 3 were performed using immunohistochemistry kit (KeyGen, Nanjing, China) according to the manufacturer’s instructions. Mouse organs (heart, liver, spleen, lung and kidney) tissues were fixed in 4% paraformaldehyde at 4 °C for 48 h, and then embedded in paraffin wax, sectioned (5 µm) and processed for H&E staining. Inverted fluorescence microscope was used to photograph all sections.

A further series addresses T1, CB enzyme (cathepsin B) (Homo sapiens, UniProt P07858).
T1 construct: purchased Sigma-Aldrich (St. Louis, MO, USA)
In words: Cathepsin B conversion of linear-1a into linear-1b (LC-MS). To be noted: after GSH 8 mM for 12 h, then CB 1 U/mL, 37 °C, PBS pH 7.4; at 20 h; LC-MS peak area; mean, n=3. The series is classed as biochemical. The method, then: Molecular self-assembly was performed as described previously.^[1] Briefly, the cyclic-1a was diluted into the phosphate-buffered saline (PBS; pH 7.4) to a final concentration of 1600 µM and incubated at 37 °C. The GSH (8 mM) was then added to the above solution for 12 h at 37 °C to trigger the first step of self-assembly. Afterward, cathepsin B was added to the solution for 12 h at 37 °C to trigger the second step of self-assembly (1 U/mL).
2 mL of the sample prepared by part 3 were adding GSH (8 mM) for 12 h, and then added 1 U/mL of cathepsin B, 100 µL of each sample was collected at each time point and 100 µL methanol was added to terminate the reaction. The method of detection was similar to part 3.1.

Turning to `N=C(N)NCCC[C@H](NC(=O)CNC(=O)CNC(=O)[C@@H]1CSSC[C@H](NC(=O)Cc2ccc3ccccc3c2)C(=O)N[C@H](Cc2ccccc2)C(=O)N[C@H](Cc2ccccc2)C(=O)N[C@H](Cc2ccc(O)cc2)C(=O)N[C@H](CCCCN)C(=O)N1)C(=O)N[C@@H](CCCNC(=N)N)C(=O)NCC(=O)N[C@@H](CCCCN)C(=O)NCC(=O)NCC(=O)N[C@@H](Cc1c[nH]cn1)C(=O)N[C@@H](Cc1c[nH]cn1)C(=O)N[C@@H](Cc1c[nH]cn1)C(=O)N[C@@H](CCCNC(=N)N)C(=O)N[C@@H](CCCNC(=N)N)C(=O)NCC(=O)N[C@@H](CC(=O)O)C(=O)N[C@@H](CO)C(=O)O` [cyclic-1a] ({Acetyl(2-naphthyl)}-C[dF][dF][dY][dK]CGGRRGKGGHHHRRGDS-OH; disulfide 1-6), in the series with MCF-7 cells [1], the “cytotoxicity to MCF-7 cells (MTT)” value is recorded as “no obvious cytotoxicity”. In addition, the “cellular uptake ability, MCF-7 cells” value with MCF-7 cells [2] is “strong cellular uptake ability”.
A word on the IC50: it is the concentration needed to halve the response being measured. `COc1cccc2c1C(=O)c1c(O)c3c(c(O)c1C2=O)C[C@@](O)(C(=O)CO)C[C@@H]3O[C@H]1C[C@H](N)[C@H](O)[C@H](C)O1` [doxorubicin, Doxorubicin] returned an IC50 in the series on MCF-7/DOX cells of 83.3 ± 6.13 µM. For the same molecule, the “body weight of mice” value in series [3] (DOX 5 mg/kg, intraperitoneally every 3 days, six times, n=6) is recorded as “gradually increased throughout the experiments except for the DOX-treated group”. For the same molecule, the “pathological lesions in organs (H&E)” value in series [3] (heart, liver, spleen, lung and kidney, DOX 5 mg/kg intraperitoneally) is “lesions of the heart and kidney were detected”.
In the case of `N=C(N)NCCC[C@H](NC(=O)CNC(=O)CNC(=O)[C@H](CS)NC(=O)[C@@H](CCCCN)NC(=O)[C@@H](Cc1ccc(O)cc1)NC(=O)[C@@H](Cc1ccccc1)NC(=O)[C@@H](Cc1ccccc1)NC(=O)[C@H](CS)NC(=O)Cc1ccc2ccccc2c1)C(=O)N[C@@H](CCCNC(=N)N)C(=O)NCC(=O)N[C@@H](CCCCN)C(=O)NCC(=O)NCC(=O)N[C@@H](Cc1c[nH]cn1)C(=O)N[C@@H](Cc1c[nH]cn1)C(=O)N[C@@H](Cc1c[nH]cn1)C(=O)N[C@@H](CCCNC(=N)N)C(=O)N[C@@H](CCCNC(=N)N)C(=O)NCC(=O)N[C@@H](CC(=O)O)C(=O)N[C@@H](CO)C(=O)O` [linear-1a] ({Acetyl(2-naphthyl)}-C[dF][dF][dY][dK]CGGRRGKGGHHHRRGDS-OH), the “linear-1a converted into linear-1b” value on CB enzyme (cathepsin B) is on record as “more than 90%”.
